From US20260062426A1, “CYCLIN DEPENDENT KINASE DEGRADERS AND METHODS OF USE THEREOF” (Differentiated Therapeutics Inc, priority 2023, published 2026)

Columns and labels:
Format in all cases: cell-based
CDK2 = molecular target: T1, CDK2 (Homo sapiens, UniProt P24941); test: CDK2 HIBIT PQ (protein quantification), degradation; details: for CDK2 HIBIT PQ Max (%): Max = Maximum; for DC50: PQ = Protein Quantification
T1 construct: host or cells: HEK293
Procedure, shortened: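 HEK293 cells bearing HiBiT-tagged CDK2 were cultured in DMEM containing 10% FBS, plated in 384-well plates at 1.6×10^5 cells/well in 50 uL, and kept overnight at 37° C and 5% CO2. Following 6 hours of compound exposure, each well received 20 μL of HiBiT reagent (Nano-Glo HiBiT lytic buffer, lytic substrate, LgBiT protein), and plates were shaken for 20 minutes at room temperature and then read on an EnVision, with 0.1% DMSO as the high control and medium only as the low control. DC50 and maximal degradation were calculated from these readings.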

CDK9 = molecular target: T2, CDK9 (Homo sapiens, UniProt P50750); test: CDK9 HIBIT PQ (protein quantification), degradation; details: for Dmax: Max = Maximum; for DC50: PQ = Protein Quantification
T2 construct: host or cells: HEK293
Procedure, shortened: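 HEK293 cells carrying HiBiT-tagged CDK9 were grown in DMEM with 10% FBS and seeded in 384-well plates at 1.6×10^5 cells/well in 50 uL, then incubated overnight at 37° C and 5% CO2. After compound treatment, CDK9 protein was measured with a HiBiT assay. High control was 0.1% DMSO-treated cells and low control was culture medium only. Maximal degradation, Dmax and DC50 were derived from these readings.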

CCNE1 = molecular target: T3, CCNE1 (Homo sapiens, UniProt P24864+P24941); test: CCNE1 HIBIT PQ (protein quantification), degradation; details: for CCNE1 HIBIT PQ Max (%): Max = Maximum; for DC50: PQ = Protein Quantification
T3 construct: host or cells: HEK293
Procedure, shortened: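 For DC50 and maximal degradation, CCNE1 protein was quantified with a HiBiT assay in HEK293 cells carrying HiBiT-tagged CCNE1. Cells in EMEM with 10% FBS went into 384-well plates at 1.6×10⁵ cells/well in 50 uL, stayed overnight at 37° C and 5% CO₂, and then received compound for 6 hours. Readings were referenced to 0.1% DMSO-treated cells as the high control and culture medium only as the low control.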

T2 sequence (P50750 whole entry): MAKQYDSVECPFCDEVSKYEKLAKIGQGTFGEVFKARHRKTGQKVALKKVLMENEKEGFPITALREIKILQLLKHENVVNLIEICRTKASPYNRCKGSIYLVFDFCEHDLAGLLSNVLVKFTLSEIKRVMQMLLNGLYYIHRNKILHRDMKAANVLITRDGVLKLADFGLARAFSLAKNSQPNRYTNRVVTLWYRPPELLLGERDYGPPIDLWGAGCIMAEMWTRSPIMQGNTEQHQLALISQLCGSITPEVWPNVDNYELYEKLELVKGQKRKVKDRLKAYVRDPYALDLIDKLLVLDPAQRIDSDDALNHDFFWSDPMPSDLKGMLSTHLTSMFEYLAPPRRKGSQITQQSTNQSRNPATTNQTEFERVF

CC(C)Oc1c(-c2cn[nH]c2)ncn2nc(Nc3ccc(S(=O)(=O)N(C)CCCN4CCN(c5ccc6c(c5)n(C)c(=O)n6C5CCC(=O)NC5=O)CC4)cc3F)nc12 (centres unmarked) [Compound 66]
CDK2 HIBIT PQ Max (%) (CDK2): 92% | DC50 (CDK2): 0.1 nM | Dmax (CDK9): 69% | DC50 (CDK9): 1.87 nM | CCNE1 HIBIT PQ Max (%) (CCNE1): 70% | DC50 (CCNE1): 0.93 nM

CC(C)Oc1c(-c2cn[nH]c2)ncn2nc(Nc3ccc(S(=O)(=O)N(C)CCCN4C5CCC4CN(c4ccc6c(c4)n(C)c(=O)n6C4CCC(=O)NC4=O)C5)cc3F)nc12 (centres unmarked) [Compound 68]
CDK2 HIBIT PQ Max (%) (CDK2): 90% | DC50 (CDK2): 0.1 nM | Dmax (CDK9): 73% | DC50 (CDK9): 2.76 nM | CCNE1 HIBIT PQ Max (%) (CCNE1): 67% | DC50 (CCNE1): 1.05 nM

CC(C)Oc1c(-c2cn[nH]c2)ncn2nc(Nc3ccc(S(=O)(=O)N(C)CCCN4CC5CC4CN5c4ccc5c(c4)n(C)c(=O)n5C4CCC(=O)NC4=O)cc3F)nc12 (centres unmarked) [Compound 69]
CDK2 HIBIT PQ Max (%) (CDK2): 71% | DC50 (CDK2): 0.5 nM | Dmax (CDK9): 6% | CCNE1 HIBIT PQ Max (%) (CCNE1): 18%

CC(C)Oc1c(-c2cn[nH]c2)ncn2nc(Nc3ccc(S(=O)(=O)N(C)CCCN4C5CC4CN(c4ccc6c(c4)n(C)c(=O)n6C4CCC(=O)NC4=O)C5)cc3F)nc12 (centres unmarked) [Compound 70]
CDK2 HIBIT PQ Max (%) (CDK2): 61% | DC50 (CDK2): 0.3 nM | Dmax (CDK9): 9% | CCNE1 HIBIT PQ Max (%) (CCNE1): 20%

CC(C)Oc1c(-c2cn[nH]c2)ncn2nc(Nc3ccc(S(=O)(=O)N4CCC(CN5CCC(c6ccc7c(c6)n(C)c(=O)n7C6CCC(=O)NC6=O)CC5)C4)cc3F)nc12 (centres unmarked) [Compound 71]
CDK2 HIBIT PQ Max (%) (CDK2): 78% | Dmax (CDK9): 29% | CCNE1 HIBIT PQ Max (%) (CCNE1): 35%

CC(C)Oc1c(-c2cn[nH]c2)ncn2nc(Nc3ccc(S(=O)(=O)N4CCCC(CN5CCC(c6ccc7c(c6)n(C)c(=O)n7C6CCC(=O)NC6=O)CC5)C4)cc3F)nc12 (centres unmarked) [Compound 72]
CDK2 HIBIT PQ Max (%) (CDK2): 88% | Dmax (CDK9): 71% | DC50 (CDK9): 0.5 nM | CCNE1 HIBIT PQ Max (%) (CCNE1): 64% | DC50 (CCNE1): 0.17 nM

CC(C)Oc1c(-c2cn[nH]c2)ncn2nc(Nc3ccc(S(=O)(=O)c4ccc(CN5CCC(c6ccc7c(c6)n(C)c(=O)n7[C@H]6CCC(=O)NC6=O)CC5)o4)cc3F)nc12 [Compound 73]
CDK2 HIBIT PQ Max (%) (CDK2): 79% | DC50 (CDK2): 0.8 nM | Dmax (CDK9): 31% | CCNE1 HIBIT PQ Max (%) (CCNE1): 27%

CC(C)Oc1c(-c2cn[nH]c2)ncn2nc(Nc3ccc(S(=O)(=O)N4CC5C4CCN5CC4CCN(c5cccc6c5n(C)c(=O)n6C5CCC(=O)NC5=O)CC4)cc3F)nc12 (centres unmarked) [Compound 74]
CDK2 HIBIT PQ Max (%) (CDK2): 91% | DC50 (CDK2): 0.7 nM | Dmax (CDK9): 88% | DC50 (CDK9): 7.04 nM | CCNE1 HIBIT PQ Max (%) (CCNE1): 71% | DC50 (CCNE1): 3.57 nM

CC(C)Oc1c(-c2cn[nH]c2)ncn2nc(Nc3ccc(S(=O)(=O)N4CCC5(CCN(CC6CN(c7cccc8c7n(C)c(=O)n8C7CCC(=O)NC7=O)C6)C5)C4)cc3F)nc12 (centres unmarked) [Compound 75]
CDK2 HIBIT PQ Max (%) (CDK2): 85% | DC50 (CDK2): 4.7 nM | Dmax (CDK9): 55% | DC50 (CDK9): 92.5 nM | CCNE1 HIBIT PQ Max (%) (CCNE1): 28%

CC(C)Oc1c(-c2cn[nH]c2)ncn2nc(Nc3ccc(S(=O)(=O)c4cccc(CC5CC(c6ccc7c(c6)CN(C6CCC(=O)NC6=O)C7=O)C5)c4)cc3F)nc12 (centres unmarked) [Compound 77, 3-(5-(3-(3-((3-fluoro-4-((8-isopropoxy-7-(1H-pyrazol-4-yl)-[1,2,4]triazolo[1,5-c]pyrimidin-2-yl)amino)phenyl)sulfonyl)benzyl)cyclobutyl)-1-oxoisoindolin-2-yl)piperidine-2,6-dione]
CDK2 HIBIT PQ Max (%) (CDK2): 95% | DC50 (CDK2): 12.4 nM | Dmax (CDK9): 37% | CCNE1 HIBIT PQ Max (%) (CCNE1): 82% | DC50 (CCNE1): 34.4 nM

CC(C)Oc1c(-c2cn[nH]c2)ncn2nc(Nc3ccc(S(=O)(=O)c4cccc(CN5CC(c6ccc7c(N8CCC(=O)NC8=O)nn(C)c7c6)C5)c4)cc3F)nc12 [Compound 78]
CDK2 HIBIT PQ Max (%) (CDK2): 85% | DC50 (CDK2): 2 nM | Dmax (CDK9): 12% | CCNE1 HIBIT PQ Max (%) (CCNE1): 36%

CC(C)Oc1c(-c2cn[nH]c2)ncn2nc(Nc3ccc(S(=O)(=O)c4cccc(C(C)N5CCN(c6ccc7c(N8CCC(=O)NC8=O)nn(C)c7c6)C6CC65)c4)cc3F)nc12 (centres unmarked) [Compound 83]
CDK2 HIBIT PQ Max (%) (CDK2): 89% | DC50 (CDK2): 7.6 nM | Dmax (CDK9): 23% | CCNE1 HIBIT PQ Max (%) (CCNE1): 28%

CC(C)Oc1c(-c2cn[nH]c2)ncn2nc(Nc3ccc(S(=O)(=O)N4CCCC(CN5CCN(c6ccc7c(N8CCC(=O)NC8=O)nn(C)c7c6)C6CC65)C4)cc3F)nc12 (centres unmarked) [Compound 88]
CDK2 HIBIT PQ Max (%) (CDK2): 61% | DC50 (CDK2): 6.5 nM | Dmax (CDK9): 18% | CCNE1 HIBIT PQ Max (%) (CCNE1): 25%

CC(C)Oc1c(-c2cn[nH]c2)ncn2nc(Nc3ccc(S(=O)(=O)c4cccc(C[C@H]5C[C@H](c6ccc7c(N8CCC(=O)NC8=O)nn(C)c7c6)C5)c4)cc3F)nc12 [Compound 89, rel-1-(6-((1s,3r)-3-(3-((3-fluoro-4-((8-isopropoxy-7-(1H-pyrazol-4-yl)-[1,2,4]triazolo[1,5-c]pyrimidin-2-yl)amino)phenyl)sulfonyl)benzyl)cyclobutyl)-1-methyl-1H-indazol-3-yl)dihydropyrimidine-2,4(1H,3H)-dione]
CDK2 HIBIT PQ Max (%) (CDK2): 70% | DC50 (CDK2): 43.4 nM | Dmax (CDK9): 17% | CCNE1 HIBIT PQ Max (%) (CCNE1): 38%

CC(C)Oc1c(-c2cn[nH]c2)ncn2nc(Nc3ccc(S(=O)(=O)c4cccc(C[C@H]5C[C@@H](c6ccc7c(N8CCC(=O)NC8=O)nn(C)c7c6)C5)c4)cc3F)nc12 [Compound 90, rel-1-(6-((1r,3s)-3-(3-((3-fluoro-4-((8-isopropoxy-7-(1H-pyrazol-4-yl)-[1,2,4]triazolo[1,5-c]pyrimidin-2-yl)amino)phenyl)sulfonyl)benzyl)cyclobutyl)-1-methyl-1H-indazol-3-yl)dihydropyrimidine-2,4(1H,3H)-dione]
CDK2 HIBIT PQ Max (%) (CDK2): 91% | DC50 (CDK2): 14.3 nM | Dmax (CDK9): 14% | CCNE1 HIBIT PQ Max (%) (CCNE1): 48%

CC(C)Oc1c(-c2cn[nH]c2)ncn2nc(Nc3ccc(S(=O)(=O)N4CCCC(CN5CCN(c6ccc7c(N8CCC(=O)NC8=O)nn(C)c7c6)C(C)C5)C4)cc3F)nc12 (centres unmarked) [Compound 91]
CDK2 HIBIT PQ Max (%) (CDK2): 84% | DC50 (CDK2): 3.2 nM | Dmax (CDK9): 67% | DC50 (CDK9): 61.5 nM | CCNE1 HIBIT PQ Max (%) (CCNE1): 71% | DC50 (CCNE1): 12.5 nM

CC(C)Oc1c(-c2cn[nH]c2)ncn2nc(Nc3ccc(S(=O)(=O)N4CCCC(CN5CCC(c6ccc7c(N8CCC(=O)NC8=O)nn(C)c7c6)C(C)C5)C4)cc3F)nc12 (centres unmarked) [Compound 92]
CDK2 HIBIT PQ Max (%) (CDK2): 88% | DC50 (CDK2): 1.7 nM | Dmax (CDK9): 77% | DC50 (CDK9): 21.7 nM | CCNE1 HIBIT PQ Max (%) (CCNE1): 82% | DC50 (CCNE1): 4.11 nM

CC(C)Oc1c(-c2cn[nH]c2)ncn2nc(Nc3ccc(S(=O)(=O)N4CCCC(CN5CCC(c6ccc7c(N8CCC(=O)NC8=O)nn(C)c7c6)CC5(C)C)C4)cc3F)nc12 (centres unmarked) [Compound 93, 1-(6-(1-((1-((3-fluoro-4-((8-isopropoxy-7-(1H-pyrazol-4-yl)-[1,2,4]triazolo[1,5-c]pyrimidin-2-yl)amino)phenyl)sulfonyl)piperidin-3-yl)methyl)-2,2-dimethylpiperidin-4-yl)-1-methyl-1H-indazol-3-yl)dihydropyrimidine-2,4(1H,3H)-dione]
CDK2 HIBIT PQ Max (%) (CDK2): 77% | DC50 (CDK2): 0.7 nM | Dmax (CDK9): 56% | DC50 (CDK9): 5.87 nM | CCNE1 HIBIT PQ Max (%) (CCNE1): 56% | DC50 (CCNE1): 1.22 nM
